The values that follow come from patent US11072598B2, “Somatostatin modulators and uses thereof” (CRINETICS PHARMACEUTICALS, INC., priority 2017, dated 2021).

The structures appear in SMILES notation. Like-named read-outs stand apart in the source and are kept apart here. Where only a bound is given, the exact number is not on record here.

Experiment [1] concerns the target T1, human somatostatin receptor subtype 2 (Homo sapiens, UniProt P30874).
T1 construct: expressed in transfected cells
The experiment in a line: cAMP functional assay for SSTR2 agonists. It is filed as cell-based. The gist of the method:
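CHO-K1 cells stably expressing human SSTR2 were treated for 20 min at 37 °C with compound plus NKH477 (added as 1.6 μM) in HBSS with IBMX. Intracellular cAMP was measured by HTRF against a standard curve. EC50 values came from concentration-response curves.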

The target in another experiment is T2, hSSTR4 (Homo sapiens, UniProt P31391).
T2 construct: expressed in transfected cells
T2 sequence (P31391 whole entry): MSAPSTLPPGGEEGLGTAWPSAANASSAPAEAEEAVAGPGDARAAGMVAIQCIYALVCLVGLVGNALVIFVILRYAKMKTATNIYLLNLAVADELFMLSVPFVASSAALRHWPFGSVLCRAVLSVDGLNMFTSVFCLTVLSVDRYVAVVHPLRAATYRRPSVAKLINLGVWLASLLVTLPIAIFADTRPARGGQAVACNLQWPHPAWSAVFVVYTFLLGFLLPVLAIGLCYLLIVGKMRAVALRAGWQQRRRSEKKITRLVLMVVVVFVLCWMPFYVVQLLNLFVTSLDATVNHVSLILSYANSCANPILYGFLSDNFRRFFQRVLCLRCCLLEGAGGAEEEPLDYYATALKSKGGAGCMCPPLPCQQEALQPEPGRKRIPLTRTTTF
The experiment in a line: inhibition of cAMP via hSSTR4. To be noted: for EC50: cAMP inhibition, Table C, read-out: hSST4 (EC50); for hSST4/hSST2 (ratio): selectivity for inhibition of cAMP via hSSTR2 vs. hSSTR4. It is filed as cell-based. The text has this:
General overview: All five SSTR subtypes are Gi coupled G-protein coupled receptors (GPCRs) that lead to decreases in intracellular cyclic AMP (cAMP) when activated by an agonist. Therefore, measurement of intracellular cAMP levels can be used to assess whether compounds of the invention are agonists of SSTR subtypes (John Kelly, Troy Stevens, W. Joseph Thompson, and Roland Seifert, Current Protocols in Pharmacology, 2005, 2.2.1-2.2). One example of an intracellular cAMP assay is described below. cAMP assay protocol:
Four days prior to the assay, 5,000 Chinese hamster ovary cells (CHO-K1, ATCC #CCL-61) stably expressing the human somatostatin receptor subtype 2 are plated in each well of a 96-well tissue culture-treated plate in Ham's F12 growth media (ThermoFisher #10-080-CM) supplemented with 10% donor bovine serum (Gemini Bio-Products #100-506), 100 U/mL penicillin; 100 ug/mL streptomycin; 2 mM L-glutamine (Gemini Bio-Products #400-110) and 0.2 mg/mL hygromycin B (GoldBio #31282-04-9). The cells are cultured at 37° C., 5% CO2 and 95% humidity. On the day of the assay, the media is aspirated and the cells are treated with 50 μL of 1.6 μM NKH477 (Sigma #N3290) plus various dilutions of compounds of the invention in assay buffer [1× Hank's Balanced Salt Solution (ThermoFisher #SH3058802), 0.5 mM HEPES pH 7.4, 0.1% bovine serum albumin, 0.2 mM 3-Isobutyl-1-methylxanthine (IBMX, VWR #200002-790)]. The cells are incubated for 20 minutes at 37° C. (the final concentration of the compounds of the invention are typically 0-10,000 nM). The cells are treated with 50 μL of lysis buffer (HRTF cAMP kit, Cisbio). The lysate is transferred to 384-well plates and cAMP detection and visualization antibodies are added and incubated for 1-24 hours at room temperature. The time-resolved fluorescent signal is read with a Tecan M1000Pro multiplate reader. The intracellular cAMP concentrations are calculated by regression to a standard curve and are plotted vs. the concentration of the compounds of the invention and the EC50 of the compounds are calculated using standard methods. All data manipluations are in GraphPad Prism v6.

In a further experiment the target is T3, human CYP2D6 isozyme (Homo sapiens, UniProt P10635).
T3 construct: purchased ThermoFisher Scientific P2972
T3 sequence (P10635 whole entry): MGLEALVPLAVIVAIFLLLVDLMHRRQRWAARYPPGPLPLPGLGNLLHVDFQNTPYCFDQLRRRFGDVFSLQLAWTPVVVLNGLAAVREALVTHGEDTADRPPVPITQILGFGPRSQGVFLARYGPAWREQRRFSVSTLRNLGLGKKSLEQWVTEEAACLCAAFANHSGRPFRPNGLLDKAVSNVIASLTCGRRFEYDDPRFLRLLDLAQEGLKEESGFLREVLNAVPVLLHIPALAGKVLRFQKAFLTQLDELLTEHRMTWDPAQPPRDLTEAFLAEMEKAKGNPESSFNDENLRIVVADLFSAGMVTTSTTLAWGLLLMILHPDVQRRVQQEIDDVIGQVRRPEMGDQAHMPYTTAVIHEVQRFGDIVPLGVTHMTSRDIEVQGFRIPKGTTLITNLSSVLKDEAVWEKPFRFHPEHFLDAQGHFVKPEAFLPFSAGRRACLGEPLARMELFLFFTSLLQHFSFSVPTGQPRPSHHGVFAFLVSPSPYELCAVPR
The experiment can be described thus: CYP2D6 assay (Vivid CYP2D6 Blue Screening Kit). It counts as in vitro ADME. Conditions: CYP450 microsomes, fluorogenic substrate; read-out: CYP2D6 inh. How it is done:
On the day of the assay, various dilutions of test articles of the invention are prepared in assay buffer (Vivid® CYP2D6 Blue Screening Kit, ThermoFisher Scientific #P2972) and dilutions are added to a preparation of CYP450 microsomes expressing the functional human CYP2D6 isozyme (supplied by the kit) and incubated for 15 minutes at 37° C. to allow interactions between the test article of invention and the enzyme in the absence of enzyme turnover. The enzymatic reaction is initiated by addition of the NADPH co-factor in the precense of the fluorogenic substrate. Under normal conditions, this substrate (which is not fluorescent) is cleaved by active CYP2D6 to produce a a fluorescent product. When in the presence of test article, the lack of appearance of the fluorescent product is evidence of inhibition of the CYP2D6 enzyme by the test article. The enzymatic reaction is allowed to proceed for 30 minutes at […] and then terminated by the addition of 0.5 M Tris pH 10.8. The concentration of fluorescent cleavage product is measured using spectroscopic parameters prescribed in the kit with a Tecan M1000Pro multiplate reader. The percent inhibition is calculated based on the fluorescence intensity observed in the presence of the positive control inhibitor, quinidine (Sigma #Q3625), included in each assay. The percent inhibition is plotted versus test article concentration and an IC50 for CYP2D6 inhibition is calculated using standard methods. All data manipluations are in GraphPad Prism v6.

The next experiment deals with T4, hERG ion channel (Homo sapiens, UniProt Q12809).
T4 construct: purchased ThermoFisher Scientific PV5365
T4 sequence (Q12809 whole entry): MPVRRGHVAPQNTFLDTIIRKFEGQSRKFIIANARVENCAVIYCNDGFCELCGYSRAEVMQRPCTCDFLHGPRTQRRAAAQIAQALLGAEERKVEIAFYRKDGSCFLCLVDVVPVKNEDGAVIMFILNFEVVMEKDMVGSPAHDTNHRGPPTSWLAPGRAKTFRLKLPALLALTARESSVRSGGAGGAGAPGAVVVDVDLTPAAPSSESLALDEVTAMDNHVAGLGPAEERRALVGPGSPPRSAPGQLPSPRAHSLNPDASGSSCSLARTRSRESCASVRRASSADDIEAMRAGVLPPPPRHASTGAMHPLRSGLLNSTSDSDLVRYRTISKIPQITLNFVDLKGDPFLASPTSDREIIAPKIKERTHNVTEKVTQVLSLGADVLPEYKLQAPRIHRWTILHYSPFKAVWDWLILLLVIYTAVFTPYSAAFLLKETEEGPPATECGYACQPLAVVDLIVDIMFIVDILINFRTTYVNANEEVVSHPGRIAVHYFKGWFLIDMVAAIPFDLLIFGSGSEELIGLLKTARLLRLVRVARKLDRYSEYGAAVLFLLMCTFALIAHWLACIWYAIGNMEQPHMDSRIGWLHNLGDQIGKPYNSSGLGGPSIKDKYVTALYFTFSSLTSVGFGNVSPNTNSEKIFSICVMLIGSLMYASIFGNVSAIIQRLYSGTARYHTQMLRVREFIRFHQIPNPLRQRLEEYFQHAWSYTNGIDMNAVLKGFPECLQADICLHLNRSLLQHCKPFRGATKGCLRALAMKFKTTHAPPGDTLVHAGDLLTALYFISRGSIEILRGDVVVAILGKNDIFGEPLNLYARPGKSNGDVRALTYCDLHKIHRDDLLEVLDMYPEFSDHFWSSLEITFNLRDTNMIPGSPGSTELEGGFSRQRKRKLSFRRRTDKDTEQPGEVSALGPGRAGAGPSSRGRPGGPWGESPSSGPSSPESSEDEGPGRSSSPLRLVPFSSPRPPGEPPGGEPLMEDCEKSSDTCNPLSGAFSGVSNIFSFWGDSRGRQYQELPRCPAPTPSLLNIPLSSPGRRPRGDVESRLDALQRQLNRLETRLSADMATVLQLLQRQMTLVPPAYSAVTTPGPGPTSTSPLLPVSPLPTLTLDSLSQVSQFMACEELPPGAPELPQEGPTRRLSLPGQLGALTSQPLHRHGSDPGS
The experiment can be described thus: hERG fluorescence polarization assay (Predictor kit). It is filed as binding. Conditions: tracer displacement, membrane fractions; read-out: hERG inh. How it is done:
On the day of the assay, various dilutions of test articles of the invention are prepared in assay buffer (Predictor™ hERG Fluorescence Polarization Assay Kit, ThermoFisher Scientific #PV5365) and dilutions are added to membranes fractions that contain the functional hERG ion channel (supplied by the kit). […] Under normal conditions, the tracer binds to the hERG channel and the fluorecence polarization measured is high. […] The concentration of free tracer is measured via fluorescence polarization using parameters prescribed in the kit with a Tecan M1000Pro multiplate reader. […] The fluorescence polarization is plotted versus test article concentration and an IC50 for hERG inhibition is calculated using standard methods. All data manipluations are in GraphPad Prism v6.

[2] abbreviates: cAMP inhibition, Table C, read-out: hSST2 (EC50).
Where [3] appears, read: inhibition of cAMP activities via human SST2 receptor (SSTR2), CHO-K1 cells, read-out: EC50.

T1 sequence (P30874 whole entry): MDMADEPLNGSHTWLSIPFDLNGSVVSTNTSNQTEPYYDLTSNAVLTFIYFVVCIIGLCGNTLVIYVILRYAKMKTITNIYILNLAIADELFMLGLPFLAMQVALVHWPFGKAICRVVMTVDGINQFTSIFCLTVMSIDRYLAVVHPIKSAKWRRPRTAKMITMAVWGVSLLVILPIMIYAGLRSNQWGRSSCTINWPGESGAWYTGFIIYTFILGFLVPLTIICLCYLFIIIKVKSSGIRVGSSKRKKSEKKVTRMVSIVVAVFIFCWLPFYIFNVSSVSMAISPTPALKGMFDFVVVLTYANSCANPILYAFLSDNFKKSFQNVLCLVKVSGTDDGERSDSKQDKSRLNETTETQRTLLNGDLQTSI

Regarding `Cc1cc(F)cc(-c2cnc(N)c(-c3nc4cc(Cl)ccc4[nH]3)c2N2CCC(N)CC2)c1` [Compound 1-1, 4-(4-aminopiperidin-1-yl)-3-(5-chloro-1H-1,3-benzodiazol-2-yl)-5-(3-fluoro-5-methylphenyl)pyridin-2-amine], the EC50 is 0.03 nM in experiment [1] (setting [2]), below 10 nM in experiment [1] (setting [3]) and 0.7 nM at hSSTR4. Also, the “hSST4/hSST2 (ratio)” value at hSSTR4 was “b (between 15 and 50)”. Further, the IC50 on human CYP2D6 isozyme and on hERG ion channel was above 5000 nM throughout.

For the compound `Cc1cc(F)cc(-c2cnc(N)c(-c3nc4cc(F)cc(F)c4[nH]3)c2N2CCC(N)CC2)c1` [Compound 1-2, 4-(4-aminopiperidin-1-yl)-3-(5,7-difluoro-1H-1,3-benzodiazol-2-yl)-5-(3-fluoro-5-methylphenyl)pyridin-2-amine], the EC50 in experiment [1] (setting [2]) was 0.05 nM; in experiment [1] (setting [3]), below 10 nM; at hSSTR4, 1.3 nM. Further, the “hSST4/hSST2 (ratio)” value on hSSTR4 was “b (between 15 and 50)”. The IC50 on human CYP2D6 isozyme and at hERG ion channel was above 5000 nM throughout.

Consider `Cc1cc(F)cc(-c2cnc(N)c(-c3nc4cc(F)ccc4[nH]3)c2N2CCC(N)CC2)c1` [Compound 1-6, 4-(4-aminopiperidin-1-yl)-3-(5-fluoro-1H-1,3-benzodiazol-2-yl)-5-(3-fluoro-5-methylphenyl)pyridin-2-amine], for which the figures for the EC50 (in experiment [1] (setting [2]); in experiment [1] (setting [3]); on hSSTR4) were 0.06 nM, below 10 nM and 0.92 nM, respectively. For the same compound, on hSSTR4, the “hSST4/hSST2 (ratio)” value was “b (between 15 and 50)”. For the same compound, the IC50 at human CYP2D6 isozyme and at hERG ion channel was above 5000 nM in each case.

With `Cc1cc(F)cc(-c2cnc(N)c(-c3nc4cccc(F)c4[nH]3)c2N2CCC(N)CC2)c1` [Compound 1-11, 4-(4-aminopiperidin-1-yl)-3-(7-fluoro-1H-1,3-benzodiazol-2-yl)-5-(3-fluoro-5-methylphenyl)pyridin-2-amine], the EC50 in experiment [1] (setting [2]) was 0.27 nM; in experiment [1] (setting [3]), below 10 nM; on hSSTR4 it was 0.71 nM. Besides, at hSSTR4, the “hSST4/hSST2 (ratio)” value is “c (between 2.5 and 15)”. In addition, the IC50 at human CYP2D6 isozyme and on hERG ion channel was above 5000 nM throughout.

For the compound `Cc1cc(F)cc(-c2cnc(N)c(-c3nc4cc(C#N)ccc4[nH]3)c2N2CCC(N)CC2)c1` [Compound 1-12, 2-[2-amino-4-(4-aminopiperidin-1-yl)-5-(3-fluoro-5-methylphenyl)pyridin-3-yl]-1H-1,3-benzodiazole-5-carbonitrile], the EC50 was 0.06 nM in experiment [1] (setting [2]), below 10 nM in experiment [1] (setting [3]) and 14 nM on hSSTR4. For the same compound, the “hSST4/hSST2 (ratio)” value at hSSTR4 is “a (above 50)”. The IC50 at human CYP2D6 isozyme and on hERG ion channel was above 5000 nM throughout.

For `CNc1ncc(-c2cc(C)cc(F)c2)c(N2CCC(N)CC2)c1-c1nc2cc(F)cc(F)c2[nH]1` [Compound 1-48, 4-(4-aminopiperidin-1-yl)-3-(5,7-difluoro-1H-1,3-benzodiazol-2-yl)-5-(3-fluoro-5-methylphenyl)-N-methylpyridin-2-amine], the EC50 is 0.18 nM in experiment [1] (setting [2]), below 10 nM in experiment [1] (setting [3]) and 15 nM on hSSTR4. Further, the “hSST4/hSST2 (ratio)” value on hSSTR4 is listed as “a (above 50)”. The IC50 at human CYP2D6 isozyme and at hERG ion channel was above 5000 nM throughout.

For the compound `COc1cc(F)cc2nc(-c3c(C)ncc(-c4cc(C)cc(F)c4)c3N3CCC(N)CC3)[nH]c12` [Compound 2-15, 1-[3-(5-fluoro-7-methoxy-1H-1,3-benzodiazol-2-yl)-5-(3-fluoro-5-methylphenyl)-2-methylpyridin-4-yl]piperidin-4-amine], the EC50 in experiment [1] (setting [3]) was below 10 nM. Besides, the “hSST4/hSST2 (ratio)” value on hSSTR4 is “c (between 2.5 and 15)”.

Consider `COc1cc(F)cc2nc(-c3c(N(C)C)ncc(-c4cc(C)cc(F)c4)c3N3CCC(N)CC3)[nH]c12` [Compound 4-6, 4-(4-aminopiperidin-1-yl)-3-(5-fluoro-7-methoxy-1H-1,3-benzodiazol-2-yl)-5-(3-fluoro-5-methylphenyl)-N,N-dimethylpyridin-2-amine], for which the EC50 in experiment [1] (setting [3]) was below 10 nM. For the same compound, the “hSST4/hSST2 (ratio)” value on hSSTR4 was “b (between 15 and 50)”.

Regarding `COc1cc(F)cc2nc(-c3c(N4CC(F)C4)ncc(-c4cc(C)cc(F)c4)c3N3CCC(N)CC3)[nH]c12` [Compound 4-7, 1-[3-(5-fluoro-7-methoxy-1H-1,3-benzodiazol-2-yl)-5-(3-fluoro-5-methylphenyl)-2-(3-fluoroazetidin-1-yl)pyridin-4-yl]piperidin-4-amine], the EC50 in experiment [1] (setting [3]) is below 10 nM. Besides, the “hSST4/hSST2 (ratio)” value at hSSTR4 is “a (above 50)”.

`Cc1cc(F)cc(-c2cnc(N3CCOCC3)c(-c3nc4cc(F)cc(F)c4[nH]3)c2N2CCC(N)CC2)c1` [Compound 4-8, 1-[3-(5,7-difluoro-1H-1,3-benzodiazol-2-yl)-5-(3-fluoro-5-methylphenyl)-2-(morpholin-4-yl)pyridin-4-yl]piperidin-4-amine]: the EC50 in experiment [1] (setting [3]) is below 10 nM. Besides, the “hSST4/hSST2 (ratio)” value at hSSTR4 is “a (above 50)”.

`Cc1cc(F)cc(-c2cncc(-c3nc4cc(C#N)ccc4[nH]3)c2N2CCC(N)CC2)c1` [R^1=H, R^5=H, R^6=5-CN, R^7=H, reference compound]: the EC50 in experiment [1] (setting [2]) was found to be 0.13 nM; on hSSTR4, 1.2 nM. On hSSTR4, the “hSST4/hSST2 (ratio)” value was “c (between 2.5 and 15)”. Besides, the values for the IC50 on human CYP2D6 isozyme and at hERG ion channel were above 5000 nM and below 5000 nM, respectively.

Regarding `Cc1cc(F)cc(-c2cncc(-c3nc4cc(F)ccc4[nH]3)c2N2CCC(N)CC2)c1` [R^1=H, R^5=H, R^6=5-F, R^7=H, reference compound], the EC50 at hSSTR4 came to 0.12 nM. Besides, at human CYP2D6 isozyme, the IC50 is below 5000 nM.

Consider `Cc1cc(F)cc(-c2cncc(-c3nc4cccc(F)c4[nH]3)c2N2CCC(N)CC2)c1` [R^1=H, R^5=H, R^6=H, R^7=7-F, reference compound], for which the EC50 in experiment [1] (setting [2]) was determined as 0.43 nM; on hSSTR4 it was 0.09 nM. Besides, the “hSST4/hSST2 (ratio)” value on hSSTR4 is “e (below 1)”. Further, the figures for the IC50 at human CYP2D6 isozyme and at hERG ion channel were below 5000 nM and above 5000 nM, respectively.

A word on the EC50: it is the concentration at which the effect is half-maximal.
